Measured values from patent publication US20260234144A1 (TAY THERAPEUTICS LIMITED, priority 2023, published 2026).

Test system: R223X stop codon in the mutated luciferase gene, ADXC8 luciferase reporter cell line
Assay: cells
Type: cell-based
Conditions: 24 h, ADXC8 cells, 24 hours; for Emax: read-out: Fold Over Control, maximum fold response relative to 200 μM G418; for EC (100% of 200 uM G418 response): read-out: pC100%, negative logarithm of the concentration giving the same response as 200 μM G418

SMILES	Emax	EC (100% of 200 uM G418 response)
C=C(C)c1ccnc2nc(NC3CCN(C)CC3)nc(N)c12 [Example 245, N^2-(1-methylpiperidin-4-yl)-5-(prop-1-en-2-yl)pyrido[2,3-d]pyrimidine-2,4-diamine]	0 to 100%	> 100 µM
CC(C)c1ccnc2nc(NC3CCN(C)CC3)nc(N)c12 [Example 246, 5-isopropyl-N^2-(1-methylpiperidin-4-yl)pyrido[2,3-d]pyrimidine-2,4-diamine]	0 to 100%	> 100 µM
CNc1ccnc2nc(NC3CCN(C)CC3)nc(N)c12 [Example 247]	0 to 100%	> 100 µM
COCc1ccnc2nc(NC3CCN(C)CC3)nc(N)c12 [Example 248, 5-(methoxymethyl)-N^2-(1-methylpiperidin-4-yl)pyrido[2,3-d]pyrimidine-2,4-diamine]	0 to 100%	> 100 µM
C#Cc1ccnc2nc(NC3CCN(C)CC3)nc(N)c12 [Example 249, 5-ethynyl-N^2-(1-methylpiperidin-4-yl)pyrido[2,3-d]pyrimidine-2,4-diamine]	100 to 3000%	10 to 100 µM
CN1CCC(Nc2nc(N)c3c(C#N)ccnc3n2)CC1 [Example 250, 4-amino-2-((1-methylpiperidin-4-yl)amino)pyrido[2,3-d]pyrimidine-5-carbonitrile]	0 to 100%	> 100 µM
CC#Cc1ccnc2nc(NC3CCN(C)CC3)nc(N)c12 [Example 251, N^2-(1-methylpiperidin-4-yl)-5-(prop-1-yn-1-yl)pyrido[2,3-d]pyrimidine-2,4-diamine]	100 to 3000%	10 to 100 µM
COC(C)c1ccnc2nc(NC3CCN(C)CC3)nc(N)c12 (centres unmarked) [Example 252, 5-(1-methoxyethyl)-N^2-(1-methylpiperidin-4-yl)pyrido[2,3-d]pyrimidine-2,4-diamine]	0 to 100%	> 100 µM
Cc1cccc(-c2cc(C)c3c(N)nc(NCCCN4CCOCC4)nc3n2)c1 [Example 253, 5-methyl-N2-(3-morpholinopropyl)-7-(m-tolyl)pyrido[2,3-d]pyrimidine-2,4-diamine]		1 to 10 µM
Cc1cc(C)c2c(N)cc(NCCCCN(C)C)nc2n1 [Example 254, N^2-(4-(dimethylamino)butyl)-5,7-dimethyl-1,8-naphthyridine-2,4-diamine]	100 to 3000%	10 to 100 µM
Cc1cc(C)c2c(N)cc(N[C@@H]3CCNC3)nc2n1 [Example 255, (R)-5,7-dimethyl-N^2-(pyrrolidin-3-yl)-1,8-naphthyridine-2,4-diamine]		0.1 to 1 µM
CNc1cc(N[C@@H]2CCNC2)nc2nc(C)cc(C)c12 [Example 256, (R)—N^4,5,7-trimethyl-N^2-(pyrrolidin-3-yl)-1,8-naphthyridine-2,4-diamine]		0.1 to 1 µM
CNc1c(C)c(NC2CCN(C)CC2)nc2nc(C)cc(C)c12 [Example 257, N^4,3,5,7-tetramethyl-N^2-(1-methylpiperidin-4-yl)-1,8-naphthyridine-2,4-diamine]	0 to 100%	> 31.6 µM
CNc1cc(N[C@@H]2CCN(C)C2)nc2nc3c(c(C)c12)CCC3 [Example 258, (R)—N^4,5-dimethyl-N^2-(1-methylpyrrolidin-3-yl)-7,8-dihydro-6H-cyclopenta[b][1,8]naphthyridine-2,4-diamine]	100 to 3000%	0.1 to 1 µM
CNc1cc(NC2CCN(C)CC2)nc2nc(C)cc(C)c12 [Example 261, N^4,5,7-trimethyl-N^2-(1-methylpiperidin-4-yl)-1,8-naphthyridine-2,4-diamine]	100 to 3000%	1 to 10 µM
Cc1cc(C)c2c(N(C)C)nc(NC3CCN(C)CC3)nc2n1 [Example 262]	100 to 3000%	10 to 100 µM
Cc1cc(C)c2c(NC(C)C)nc(NC3CCN(C)CC3)nc2n1 [Example 264]	100 to 3000%	1 to 10 µM
Cc1cc(C)c2c(N(C)C3CC3)nc(NC3CCN(C)CC3)nc2n1 [Example 265]	0 to 100%	> 100 µM
Cc1cc(C)c2c(N3CCOCC3)nc(NC3CCN(C)CC3)nc2n1 [Example 266]	0 to 100%	> 100 µM
Cc1cc(C)c2c(Nc3ccccc3)nc(NC3CCN(C)CC3)nc2n1 [Example 267]	0 to 100%	> 31.6 µM
Cc1cc(C)c2c(NCc3ccccc3)nc(NC3CCN(C)CC3)nc2n1 [Example 268]	100 to 3000%	1 to 10 µM
COCCNc1nc(NC2CCN(C)CC2)nc2nc(C)cc(C)c12 [Example 269]	100 to 3000%	1 to 10 µM

SMILES	Emax	EC (100% of 200 uM G418 response)
Cc1cc(C)c2c(NCCN(C)C)nc(NC3CCN(C)CC3)nc2n1 [Example 270]	100 to 3000%	1 to 10 µM
Cc1nc2nc(NC3CCN(C)CC3)nc(N)c2c(-c2ccccc2)c1Cl [Example 271]	0 to 100%	> 31.6 µM
Cc1nc2nc(NC34CCN(CC3)CC4)nc(N)c2c2c1CCC2 [Example 272]	100 to 3000%	0.1 to 1 µM
Cc1cc(C)c2c(NCCO)nc(NC3CCN(C)CC3)nc2n1 [Example 273]		1 to 10 µM
CN1CCC(Nc2nc(N)c3c4c(cnc3n2)CCC4)CC1 [Example 274]		1 to 10 µM
CN1CCC(Nc2nc(N)c3cc4c(nc3n2)CCC4)CC1 [Example 275]		1 to 10 µM
CC(C)c1cnc2nc(NC3CCN(C)CC3)nc(N)c2c1 [Example 276]	100 to 3000%	10 to 100 µM
CN1CCC(Nc2nc(N)c3cc(C#N)cnc3n2)CC1 [Example 277]	0 to 100%	> 31.6 µM
C#Cc1cnc2nc(NC3CCN(C)CC3)nc(N)c2c1 [Example 278]	0 to 100%	> 31.6 µM
Cc1cc(C)c2c(N)nc(NC3CCNCC3)nc2n1 [Example 279]	100 to 3000%	1 to 10 µM
CNCCCNc1nc(N)c2c(C)cc(C)nc2n1 [Example 280]		1 to 10 µM
COc1ccnc2nc(NC3CCN(C)CC3)nc(N)c12 [Example 281]	100 to 3000%	10 to 100 µM
CN1CCC(Nc2nc(N)c3ccc(C#N)nc3n2)CC1 [Example 282]	0 to 100%	> 31.6 µM
CC#Cc1ccc2c(N)nc(NC3CCN(C)CC3)nc2n1 [Example 283]		1 to 10 µM
COC(C)c1cnc2nc(NC3CCN(C)CC3)nc(N)c2c1 (centres unmarked) [Example 284]	0 to 100%	> 31.6 µM
CNCCNc1nc(N)c2c(C)cc(C)nc2n1 [Example 285]		1 to 10 µM
CC(CO)c1cnc2nc(NC3CCN(C)CC3)nc(N)c2c1 (centres unmarked) [Example 286]	0 to 100%	> 100 µM
CN1CCC(Nc2nc(N)c3cc(C(=O)O)cnc3n2)CC1 [Example 287]	0 to 100%	> 100 µM
CC(O)c1ccc2c(N)nc(NC3CCN(C)CC3)nc2n1 (centres unmarked) [Example 288]	100 to 3000%	10 to 100 µM
CC(=O)c1ccc2c(N)nc(NC3CCN(C)CC3)nc2n1 [Example 289]	100 to 3000%	1 to 10 µM
COC(C)c1ccc2c(N)nc(NC3CCN(C)CC3)nc2n1 (centres unmarked) [Example 290]	100 to 3000%	10 to 100 µM
